The text below walks through data of patent publication US20140018347A1, “BENZOXAZEPINES AS INHIBITORS OF mTOR AND METHODS OF THEIR USE AND MANUFACTURE” (Exelixis, Inc., priority 2010, published 2014).

A value given as a limit tells only on which side of the number the result lay.

Test [1] concerns the target PI3Kalpha (Homo sapiens, UniProt P42336). As to the kind of experiment: PI3K Biochemical Assays (PI3K-alpha assay). Conditions: ATP consumption, luciferase-luciferin; 1 μM ATP, 10 μM PIP2. Here is the method: PI3Kn activity was measured as the percent of ATP consumed following the kinase reaction using luciferase-luciferin-coupled chemiluminescence. Reactions were conducted in 384-well white, medium binding microtiter plates (Greiner). Kinase reactions were initiated by combining test compounds, ATP, substrate (PIP2), and kinase in a 20 μL volume in a buffer solution. The standard PI3Kalpha assay buffer was composed 50 mM Tris, pH 7.5, 1 mM EGTA, 10 mM MgCl2, 1 mM DTT and 0.03% CHAPS. The standard assay concentrations for enzyme, ATP, and substrate were 3 nM, 1 μM, and 10 μM, respectively. The reaction mixture was incubated at ambient temperature for approximately 2 h. Following the kinase reaction, a 10 μL aliquot of luciferase-luciferin mix (Promega Kinase-Glo) was added and the chemiluminescence signal measured using a Victor2 or EnVision (Perkin Elmer). Total ATP consumption was limited to 40-60% and IC50 values of control compounds correlate well with literature references. Substituting PI3Kα with PI3Krβ, PI3Kγ, or PI3Kδ, the inhibitory activity of the compounds for the other isoforms of PI3K were measured. For the PI3Kβ and PI3Kδ assays, enzyme concentrations were 10 nM and 4 nM, respectively. For the PI3Kγ assay, enzyme concentration was 40 nM, the incubation time was 1 h, and the concentration of MgCl2 in the assay buffer was 5 mM.

Test [2] concerns the target mTORC1 (Homo sapiens, UniProt P42345). As to the kind of experiment: mTOR/GbL/Raptor (mTORC1) ELISA Assay. It is filed as biochemical. The conditions noted are these: phosphorylation of 4E-BP1; 0.2 nM mTORC1, 10 μM ATP. Here is the method:
The measurement of mTORC1 enzyme activity was performed in an ELISA assay format following the phosphorylation of 4E-BP1 protein. All experiments were performed in the 384-well format. Generally, 0.5 μL DMSO containing varying concentrations of the test compound was mixed with 15 μL enzyme solution. Kinase reactions were initiated with the addition of 15 μL of substrates-containing solution. The assay conditions were as follows; 0.2 nM mTORC1, 10 μM ATP and 50 nM NHis-tagged 4E-BP1 in 20 mM Hepes, pH 7.2, 1 mM DTT, 50 mM NaCl, 10 mM MnCl2, 0.02 mg/mL BSA, 0.01% CHAPS, 50 mM β-glycerophosphate. Following an incubation of 120 minutes at ambient temperature, 20 μL of the reaction volume was transferred to a Ni-Chelate-coated 384-well plate. The binding step of the 4E-BP1 protein proceeded for 60 minutes, followed by washing 4 times each with 50 μL of Tris-buffered saline solution (TBS). Anti-phospho-4E-BP1 rabbit-IgG (20 μL, 1:5000) in 5% BSA-TBST (0.2% Tween-20 in TBS) was added and further incubated for 60 minutes. Incubation with a secondary HRP-tagged anti-IgG was similarly performed after washing off the primary antibody (4 washes of 50 μL). Following the final wash step with TBST, 20 μL of SuperSignal ELISA Femto (Pierce Biotechnology) was added and the luminescence measured using an EnVision plate reader.
A general note: An ELISA detects its analyte on a solid surface through an enzyme-linked reagent.

Sequence of PI3Kalpha (P42336 whole entry): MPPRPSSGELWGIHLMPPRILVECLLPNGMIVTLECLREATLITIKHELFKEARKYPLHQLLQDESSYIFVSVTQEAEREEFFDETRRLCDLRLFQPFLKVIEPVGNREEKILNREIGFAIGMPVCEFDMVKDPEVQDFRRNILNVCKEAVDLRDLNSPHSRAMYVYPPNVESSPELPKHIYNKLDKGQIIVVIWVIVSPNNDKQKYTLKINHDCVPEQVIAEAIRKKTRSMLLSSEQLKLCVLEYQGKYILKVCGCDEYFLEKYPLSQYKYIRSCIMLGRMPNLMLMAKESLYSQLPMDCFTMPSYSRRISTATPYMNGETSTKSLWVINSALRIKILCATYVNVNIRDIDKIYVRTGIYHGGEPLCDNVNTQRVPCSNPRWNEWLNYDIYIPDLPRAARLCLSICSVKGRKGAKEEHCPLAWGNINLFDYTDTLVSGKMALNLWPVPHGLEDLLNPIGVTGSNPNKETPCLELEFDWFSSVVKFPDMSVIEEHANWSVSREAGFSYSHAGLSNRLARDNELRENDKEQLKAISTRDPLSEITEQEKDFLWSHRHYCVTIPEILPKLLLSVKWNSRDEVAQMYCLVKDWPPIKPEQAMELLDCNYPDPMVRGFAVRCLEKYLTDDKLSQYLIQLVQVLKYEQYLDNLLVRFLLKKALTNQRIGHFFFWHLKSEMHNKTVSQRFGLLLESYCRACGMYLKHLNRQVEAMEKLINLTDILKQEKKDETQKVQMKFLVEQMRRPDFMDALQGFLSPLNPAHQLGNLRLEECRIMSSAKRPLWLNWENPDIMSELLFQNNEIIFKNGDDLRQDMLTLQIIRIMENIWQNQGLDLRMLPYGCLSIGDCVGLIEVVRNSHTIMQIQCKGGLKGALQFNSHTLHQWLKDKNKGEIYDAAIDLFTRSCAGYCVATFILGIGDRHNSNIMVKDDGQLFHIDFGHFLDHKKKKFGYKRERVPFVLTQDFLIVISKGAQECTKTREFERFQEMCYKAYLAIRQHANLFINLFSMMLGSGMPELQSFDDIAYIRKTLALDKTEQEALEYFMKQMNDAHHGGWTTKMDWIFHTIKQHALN
Sequence of PI3Kalpha (P27986 whole entry partner): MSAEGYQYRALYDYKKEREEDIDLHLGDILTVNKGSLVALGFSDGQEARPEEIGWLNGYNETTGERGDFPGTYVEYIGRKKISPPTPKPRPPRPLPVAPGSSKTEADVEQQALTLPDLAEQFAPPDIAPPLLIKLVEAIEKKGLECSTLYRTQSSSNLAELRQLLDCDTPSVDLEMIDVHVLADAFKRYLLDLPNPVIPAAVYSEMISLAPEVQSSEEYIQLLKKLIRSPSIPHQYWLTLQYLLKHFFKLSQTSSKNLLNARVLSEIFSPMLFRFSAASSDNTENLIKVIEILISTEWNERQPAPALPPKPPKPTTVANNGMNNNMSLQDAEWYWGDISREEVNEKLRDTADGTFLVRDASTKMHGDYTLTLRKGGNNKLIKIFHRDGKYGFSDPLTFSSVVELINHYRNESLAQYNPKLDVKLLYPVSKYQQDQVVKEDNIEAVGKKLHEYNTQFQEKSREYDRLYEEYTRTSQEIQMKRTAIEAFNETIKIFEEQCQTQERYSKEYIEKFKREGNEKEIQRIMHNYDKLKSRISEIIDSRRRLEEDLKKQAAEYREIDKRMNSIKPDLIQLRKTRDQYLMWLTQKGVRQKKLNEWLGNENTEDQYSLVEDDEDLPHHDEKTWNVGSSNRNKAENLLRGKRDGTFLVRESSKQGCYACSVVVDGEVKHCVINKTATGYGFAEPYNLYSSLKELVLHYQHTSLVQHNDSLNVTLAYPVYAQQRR

Take `Cc1nc(N)nc(N2CCOc3ccc(-c4cnc5sc(N)nc5c4)cc3C2)c1C=O` [Compound 42, 2-amino-4-[7-(2-amino[1,3]thiazolo[5,4-b]pyridin-6-yl)-2,3-dihydro-1,4-bcnzoxazepin-4(5H)-yl]-6-methylpyrimidine-5-carbaldehyde]: the IC50 (commonly the point on the concentration scale where inhibition reaches its midpoint) was no more than 100 nM in test [1] and 100 to 500 nM in test [2].
Consider `Nc1nc(Cl)c(CO)c(N2CCOc3ccc(-c4cnc5sc(N)nc5c4)cc3C2)n1` [Compound 43, {2-amino-4-[7-(2-amino[1,3]thiazolo[5,4-b]pyridin-6-yl)-2,3-dihydro-1,4-benzoxazepin-4(5H)-yl]-6-chloropyrimidin-5-yl}methanol], for which the IC50 is no more than 100 nM in test [1] and 100 to 500 nM in test [2].
With `Cc1nc(N)nc(N2CCOc3ccc(-c4cnc5sc(N)nc5c4)cc3C2)c1CCC#N` [Compound 44, 3-{2-amino-4-[7-(2-amino[1,3]thiazolo[5,4-b]pyridin-6-yl)-2,3-dihydro-1,4-benzoxazepin-4(5H)-yl]-6-methylpyrimidin-5-yl}propanenitrile], the figures for the IC50 in test [1] and in test [2] were no more than 100 nM and 100 to 500 nM, respectively.
As to `Cc1nc(CN(C)C)nc(N2CCOc3ccc(-c4cnc5sc(N)nc5c4)cc3C2)c1CC(O)CO` (stereo not drawn) [Compound 45, 3-{4-[7-(2-amino[1,3]thiazolo[5,4-b]pyridin-6-yl)-2,3-dihydro-1,4-benzoxazepin-4(5H)-yl]-2-[(dimethylamino)methyl]-6-methylpyrimidin-5-yl}propane-1,2-diol], the IC50 in test [1] and in test [2] was 500 to 2500 nM each time.
In the case of `Cc1cc(N2CCOc3ccc(-c4cnc5sc(N)nc5c4)cc3C2)nc(N)n1` [Compound 46, 6-[4-(2-amino-6-methylpyrimidin-4-yl)-2,3,4,5-tetrahydro-1,4-benzoxazepin-7-yl][1,3]thiazolo[5,4-b]pyridin-2-amine], the IC50 in test [1] was in the range of 100 to 500 nM; in test [2] it was 500 to 2500 nM.
On to `CC(C)(C)c1cnc(N)nc1N1CCOc2ccc(-c3cnc4sc(N)nc4c3)cc2C1` [Compound 47, 6-{4-[2-amino-5-(1,1-dimethylethyl)pyrimidin-4-yl]-2,3,4,5-tetrahydro-1,4-benzoxazepin-7-yl}[1,3]thiazolo[5,4-b]pyridin-2-amine], for which the IC50 in test [1] and in test [2] was 500 to 2500 nM throughout.
As for `CCOC(=O)c1cnc(N)nc1N1CCOc2ccc(-c3cnc4sc(N)nc4c3)cc2C1` [Compound 48, ethyl 2-amino-4-[7-(2-amino[1,3]thiazolo[5,4-b]pyridin-6-yl)-2,3-dihydro-1,4-benzoxazepin-4(5H)-yl]pyrimidine-5-carboxylate], the IC50 in test [1] and in test [2] was 100 to 500 nM in each case.
As to `N#Cc1cnc(N2CCOc3ccc(-c4cnc5sc(N)nc5c4)cc3C2)nc1N` [Compound 49, 4-amino-2-[7-(2-amino[1,3]thiazolo[5,4-b]pyridin-6-yl)-2,3-dihydro-1,4-benzoxazepin-4(5H)-yl]pyrimidine-5-carbonitrile], the IC50 in test [1] is no more than 100 nM; in test [2], 100 to 500 nM.
In the same order, the values of `Nc1cc(Cl)nc(N2CCOc3ccc(-c4cnc5sc(N)nc5c4)cc3C2)n1` [Compound 50, 6-[4-(4-amino-6-chloropyrimidin-2-yl)-2,3,4,5-tetrahydro-1,4-benzoxazepin-7-yl][1,3]thiazolo[5,4-b]pyridin-2-amine] are 100 to 500 nM and 100 to 500 nM.
With `Nc1cc(N2CCOc3ccc(-c4cnc5sc(N)nc5c4)cc3C2)nc(Cl)n1` [Compound 51, 6-[4-(6-amino-2-chloropyrimidin-4-yl)-2,3,4,5-tetrahydro-1,4-benzoxazepin-7-yl][1,3]thiazolo[5,4-b]pyridin-2-amine], the IC50 in test [1] was 500 to 2500 nM; in test [2], 100 to 500 nM.
`C=Cc1c(C)nc(N)nc1N1CCOc2ccc(-c3cnc4sc(N)nc4c3)cc2C1` [Compound 52, 6-[4-(2-amino-5-ethenyl-6-methylpyrimidin-4-yl)-2,3,4,5-tetrahydro-1,4-bcnzoxazepin-7-yl][1,3]thiazolo[5,4-b]pyridin-2-amine]: the IC50 in test [1] and in test [2] was no more than 100 nM in each case.
As for `CC(O)c1c(Cl)nc(N)nc1N1CCOc2ccc(-c3cnc4sc(N)nc4c3)cc2C1` (stereo not drawn) [Compound 53, 1-{2-amino-4-[7-(2-amino[1,3]thiazolo[5,4-b]pyridin-6-yl)-2,3-dihydro-1,4-benzoxazepin-4(5H)-yl]-6-chloropyrimidin-5-yl}ethanol], the IC50 in test [1] and in test [2] was no more than 100 nM each time.
Take `Cc1nc(CN(C)C)nc(N2CCOc3ccc(-c4cnc5sc(N)nc5c4)cc3C2)c1C(C)C` [Compound 55, 6-(4-{2-[(dimethylamino)methyl]-6-methyl-5-(1-methylethyl)pyrimidin-4-yl}-2,3,4,5-tetrahydro-1,4-benzoxazepin-7-yl)[1,3]thiazolo[5,4-b]pyridin-2-amine]: the IC50 in test [1] and in test [2] was no more than 100 nM throughout.
With `CC[C@H]1CCc2c(nc(N)nc2N2CCOc3ccc(-c4cnc5sc(N)nc5c4)cc3C2)C1` [Compound 56, (7S)-4-[7-(2-amino[1,3]thiazolo[5,4-b]pyridin-6-yl)-2,3-dihydro-1,4-benzoxazepin-4(5H)-yl]-7-ethyl-5,6,7,8-tetrahydroquinazolin-2-amine], the IC50 in test [1] and in test [2] was no more than 100 nM in each case.
On to `CC1CC(C)(C)Cc2c1nc(N)nc2N1CCOc2ccc(-c3cnc4sc(N)nc4c3)cc2C1` (stereo not drawn) [Compound 57, 4-[7-(2-amino[1,3]thiazolo[5,4-b]pyridin-6-yl)-2,3-dihydro-1,4-benzoxazepin-4(5H)-yl]-6,6,8-trimethyl-5,6,7,8-tetrahydroquinazolin-2-amine], for which the IC50 in test [1] and in test [2] was no more than 100 nM each time.
For `N#Cc1cnc(N)cc1N1CCOc2ccc(-c3cnc4sc(N)nc4c3)cc2C1` [Compound 58, 6-amino-4-[7-(2-amino[1,3]thiazolo[5,4-b]pyridin-6-yl)-2,3-dihydro-1,4-benzoxazepin-4(5H)-yl]pyridine-3-carbonitrile], the IC50 in test [1] and in test [2] was no more than 100 nM each time.
`Cc1nc2c(c(N3CCOc4ccc(-c5cnc6sc(N)nc6c5)cc4C3)n1)CC(C)(C)CC2` [Compound 59, 6-[4-(2,6,6-trimethyl-5,6,7,8-tetrahydroquinazolin-4-yl)-2,3,4,5-tetrahydro-1,4-benzoxazepin-7-yl][1,3]thiazolo[5,4-b]pyridin-2-amine]: the IC50 in test [1] and in test [2] was no more than 100 nM each time.
Take `CC1(C)CCc2nc(CC#N)nc(N3CCOc4ccc(-c5cnc6sc(N)nc6c5)cc4C3)c2C1` [Compound 60, {4-[7-(2-amino[1,3]thiazolo[5,4-b]pyridin-6-yl)-2,3-dihydro-1,4-benzoxazepin-4(5H)-yl]-6,6-dimethyl-5,6,7,8-tetrahydroquinazolin-2-yl}acetonitrile]: the IC50 in test [1] and in test [2] was no more than 100 nM throughout.
As to `CC1(C)CCc2nc(N)nc(N3CCOc4ccc(-c5cnc6sc(N)nc6c5)cc4C3)c2C1` [Compound 61, 4-[7-(2-amino[1,3]thiazolo[5,4-b]pyridin-6-yl)-2,3-dihydro-1,4-benzoxazepin-4(5H)-yl]-6,6-dimethyl-5,6,7,8-tetrahydroquinazolin-2-amine], the IC50 in test [1] and in test [2] was no more than 100 nM each time.
For the molecule `Cc1nc(CN(C)C)nc(N2CCOc3ccc(-c4cnc5sc(N)nc5c4)cc3C2)c1Cc1ccc(F)cc1` [Compound 62, 6-(4-{2-[(dimethylamino)methyl]-5-[(4-fluorophenyl)methyl]-6-methylpyrimidin-4-yl}-2,3,4,5-tetrahydro-1,4-benzoxazepin-7-yl)[1,3]thiazolo[5,4-b]pyridin-2-amine], the IC50 in test [1] and in test [2] was no more than 100 nM each time.
For `CNc1nc(N)nc(N2CCOc3ccc(-c4cnc5sc(N)nc5c4)cc3C2)c1C` [Compound 63, 6-[7-(2-amino[1,3]thiazolo[5,4-b]pyridin-6-yl)-2,3-dihydro-1,4-benzoxazepin-4(5H)-yl]-N~4~,5-dimethylpyrimidine-2,4-diamine], the IC50 in test [1] is no more than 100 nM; in test [2], 100 to 500 nM.
